Results taken from PubChem BioAssay (NCI).
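Five concentrations, 48 hours, 96-well plates. TGI is the concentration that stops growth completely.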

What was measured:
Experiment in all cases: inhibition of tumour cell growth, NCI panel, 48 h
LXFL 529 NSCLC = test system: LXFL 529 NSCLC
SNB-19 CNS = test system: SNB-19 CNS
SN12C renal = test system: SN12C renal
SR leukemia = test system: SR leukemia
SF-295 CNS = test system: SF-295 CNS
OVCAR-5 ovarian = test system: OVCAR-5 ovarian
HOP-18 NSCLC = test system: HOP-18 NSCLC
DMS 114 small cell lung = test system: DMS 114 small cell lung
SF-539 CNS = test system: SF-539 CNS
OVCAR-8 ovarian = test system: OVCAR-8 ovarian
HCC-2998 colon = test system: HCC-2998 colon
RXF-631 renal = test system: RXF-631 renal
RPMI-8226 leukemia = test system: RPMI-8226 leukemia
U251 CNS = test system: U251 CNS
CCRF-CEM leukemia = test system: CCRF-CEM leukemia
M14 melanoma = test system: M14 melanoma
MOLT-4 leukemia = test system: MOLT-4 leukemia
NCI-H522 lung = test system: NCI-H522 lung
KM20L2 colon = test system: KM20L2 colon
SK-MEL-2 melanoma = test system: SK-MEL-2 melanoma
SK-OV-3 ovarian = test system: SK-OV-3 ovarian
SW-620 colon = test system: SW-620 colon
RXF 393 renal = test system: RXF 393 renal
HOP-62 NSCLC = test system: HOP-62 NSCLC
OVCAR-3 ovarian = test system: OVCAR-3 ovarian
NCI-H23 lung = test system: NCI-H23 lung
A549 NSCLC = test system: A549 NSCLC
UACC-257 melanoma = test system: UACC-257 melanoma
NCI-H226 lung = test system: NCI-H226 lung
NCI-H460 lung = test system: NCI-H460 lung
IGROV1 ovarian = test system: IGROV1 ovarian
HCT-15 colon = test system: HCT-15 colon
LOX IMVI melanoma = test system: LOX IMVI melanoma
UO-31 renal = test system: UO-31 renal
EKVX NSCLC = test system: EKVX NSCLC
SK-MEL-5 melanoma = test system: SK-MEL-5 melanoma
DLD-1 colon = test system: DLD-1 colon
HCT-116 colon = test system: HCT-116 colon
CAKI-1 renal = test system: CAKI-1 renal
TK-10 renal = test system: TK-10 renal
HL-60(TB) leukemia = test system: HL-60(TB) leukemia
OVCAR-4 ovarian = test system: OVCAR-4 ovarian
MALME-3M melanoma = test system: MALME-3M melanoma
K-562 leukemia = test system: K-562 leukemia
HT29 colon = test system: HT29 colon
ACHN renal = test system: ACHN renal
DMS 273 small cell lung = test system: DMS 273 small cell lung
SNB-75 CNS = test system: SNB-75 CNS
UACC-62 melanoma = test system: UACC-62 melanoma
SNB-78 CNS = test system: SNB-78 CNS
M19-MEL melanoma = test system: M19-MEL melanoma
COLO 205 colon = test system: COLO 205 colon
KM12 colon = test system: KM12 colon
A498 renal = test system: A498 renal
SF-268 CNS = test system: SF-268 CNS
XF 498 CNS = test system: XF 498 CNS
786-0 renal = test system: 786-0 renal
SK-MEL-28 melanoma = test system: SK-MEL-28 melanoma
HOP-92 NSCLC = test system: HOP-92 NSCLC

SMILES: CCCC[n+]1ccn(-c2nc3ccccc3n2C)c1
- TGI (LXFL 529 NSCLC): > 100 µM
- TGI (SNB-19 CNS): > 100 µM
- TGI (SN12C renal): > 100 µM
- TGI (SR leukemia): > 100 µM
- TGI (SF-295 CNS): > 100 µM
- TGI (OVCAR-5 ovarian): > 100 µM
- TGI (HOP-18 NSCLC): > 100 µM
- TGI (DMS 114 small cell lung): > 100 µM
- TGI (SF-539 CNS): > 100 µM
- TGI (OVCAR-8 ovarian): > 100 µM
- TGI (HCC-2998 colon): > 100 µM
- TGI (RXF-631 renal): > 100 µM
- TGI (RPMI-8226 leukemia): > 100 µM
- TGI (U251 CNS): > 100 µM
- TGI (CCRF-CEM leukemia): > 100 µM
- TGI (M14 melanoma): > 100 µM
- TGI (MOLT-4 leukemia): > 100 µM
- TGI (NCI-H522 lung): > 100 µM
- TGI (KM20L2 colon): > 100 µM
- TGI (SK-MEL-2 melanoma): > 100 µM
- TGI (SK-OV-3 ovarian): > 100 µM
- TGI (SW-620 colon): > 100 µM
- TGI (RXF 393 renal): > 100 µM
- TGI (HOP-62 NSCLC): > 100 µM
- TGI (OVCAR-3 ovarian): > 100 µM
- TGI (NCI-H23 lung): > 100 µM
- TGI (A549 NSCLC): > 100 µM
- TGI (UACC-257 melanoma): > 100 µM
- TGI (NCI-H226 lung): > 100 µM
- TGI (NCI-H460 lung): > 100 µM
- TGI (IGROV1 ovarian): > 100 µM
- TGI (HCT-15 colon): > 100 µM
- TGI (LOX IMVI melanoma): > 100 µM
- TGI (UO-31 renal): > 100 µM
- TGI (EKVX NSCLC): > 100 µM
- TGI (SK-MEL-5 melanoma): > 100 µM
- TGI (DLD-1 colon): > 100 µM
- TGI (HCT-116 colon): > 100 µM
- TGI (CAKI-1 renal): > 100 µM
- TGI (TK-10 renal): > 100 µM
- TGI (HL-60(TB) leukemia): > 100 µM
- TGI (OVCAR-4 ovarian): > 100 µM
- TGI (MALME-3M melanoma): > 100 µM
- TGI (K-562 leukemia): > 100 µM
- TGI (HT29 colon): > 100 µM
- TGI (ACHN renal): > 100 µM
- TGI (DMS 273 small cell lung): > 100 µM
- TGI (SNB-75 CNS): > 100 µM
- TGI (UACC-62 melanoma): > 100 µM
- TGI (SNB-78 CNS): > 100 µM

SMILES: CON1C(=O)C2(CCCCC2)C(=O)C12C=CC(C)CC2 (centres undefined)
- TGI (LXFL 529 NSCLC): > 100 µM
- TGI (SNB-19 CNS): > 100 µM
- TGI (SN12C renal): > 100 µM
- TGI (M19-MEL melanoma): > 100 µM
- TGI (SF-295 CNS): > 100 µM
- TGI (COLO 205 colon): > 100 µM
- TGI (DMS 114 small cell lung): > 100 µM
- TGI (SF-539 CNS): > 100 µM
- TGI (OVCAR-8 ovarian): > 100 µM
- TGI (HCC-2998 colon): > 100 µM
- TGI (RXF-631 renal): > 100 µM
- TGI (RPMI-8226 leukemia): > 100 µM
- TGI (U251 CNS): > 100 µM
- TGI (KM12 colon): > 100 µM
- TGI (CCRF-CEM leukemia): > 100 µM
- TGI (M14 melanoma): > 100 µM
- TGI (MOLT-4 leukemia): > 100 µM
- TGI (NCI-H522 lung): > 100 µM
- TGI (A498 renal): > 100 µM
- TGI (KM20L2 colon): > 100 µM
- TGI (SK-MEL-2 melanoma): > 100 µM
- TGI (SK-OV-3 ovarian): > 100 µM
- TGI (SW-620 colon): > 100 µM
- TGI (RXF 393 renal): > 100 µM
- TGI (HOP-62 NSCLC): > 100 µM
- TGI (OVCAR-3 ovarian): > 100 µM
- TGI (NCI-H23 lung): > 100 µM
- TGI (A549 NSCLC): > 100 µM
- TGI (UACC-257 melanoma): > 100 µM
- TGI (NCI-H226 lung): > 100 µM
- TGI (NCI-H460 lung): > 100 µM
- TGI (IGROV1 ovarian): > 100 µM
- TGI (HCT-15 colon): > 100 µM
- TGI (SF-268 CNS): > 100 µM
- TGI (LOX IMVI melanoma): > 100 µM
- TGI (UO-31 renal): > 100 µM
- TGI (EKVX NSCLC): > 100 µM
- TGI (SK-MEL-5 melanoma): > 100 µM
- TGI (XF 498 CNS): > 100 µM
- TGI (CAKI-1 renal): > 100 µM
- TGI (TK-10 renal): > 100 µM
- TGI (HL-60(TB) leukemia): > 100 µM
- TGI (MALME-3M melanoma): > 100 µM
- TGI (K-562 leukemia): > 100 µM
- TGI (HT29 colon): > 100 µM
- TGI (DMS 273 small cell lung): > 100 µM
- TGI (SNB-75 CNS): > 100 µM
- TGI (UACC-62 melanoma): > 100 µM
- TGI (786-0 renal): > 100 µM
- TGI (SK-MEL-28 melanoma): > 100 µM
- TGI (SNB-78 CNS): > 100 µM

SMILES: COc1ccc(/C=C/c2cc(OC)c(OC)c(OC)c2)cc1OC
- TGI (LXFL 529 NSCLC): > 100 µM
- TGI (SNB-19 CNS): > 100 µM
- TGI (SN12C renal): > 100 µM
- TGI (SR leukemia): > 100 µM
- TGI (SF-295 CNS): > 100 µM
- TGI (OVCAR-5 ovarian): > 100 µM
- TGI (HOP-18 NSCLC): > 100 µM
- TGI (COLO 205 colon): > 100 µM
- TGI (DMS 114 small cell lung): > 100 µM
- TGI (SF-539 CNS): > 100 µM
- TGI (OVCAR-8 ovarian): > 100 µM
- TGI (HCC-2998 colon): > 100 µM
- TGI (RXF-631 renal): > 100 µM
- TGI (RPMI-8226 leukemia): > 100 µM
- TGI (U251 CNS): > 100 µM
- TGI (KM12 colon): > 100 µM
- TGI (CCRF-CEM leukemia): > 100 µM
- TGI (M14 melanoma): > 100 µM
- TGI (MOLT-4 leukemia): > 100 µM
- TGI (NCI-H522 lung): > 100 µM
- TGI (A498 renal): > 100 µM
- TGI (KM20L2 colon): > 100 µM
- TGI (SK-MEL-2 melanoma): > 100 µM
- TGI (SK-OV-3 ovarian): > 100 µM
- TGI (SW-620 colon): > 100 µM
- TGI (RXF 393 renal): > 100 µM
- TGI (HOP-62 NSCLC): > 100 µM
- TGI (OVCAR-3 ovarian): > 100 µM
- TGI (NCI-H23 lung): > 100 µM
- TGI (A549 NSCLC): > 100 µM
- TGI (UACC-257 melanoma): > 100 µM
- TGI (NCI-H226 lung): > 100 µM
- TGI (NCI-H460 lung): > 100 µM
- TGI (IGROV1 ovarian): > 100 µM
- TGI (HCT-15 colon): > 100 µM
- TGI (SF-268 CNS): > 100 µM
- TGI (LOX IMVI melanoma): > 100 µM
- TGI (UO-31 renal): > 100 µM
- TGI (EKVX NSCLC): > 100 µM
- TGI (SK-MEL-5 melanoma): > 100 µM
- TGI (XF 498 CNS): > 100 µM
- TGI (DLD-1 colon): > 100 µM
- TGI (HCT-116 colon): > 100 µM
- TGI (CAKI-1 renal): > 100 µM
- TGI (TK-10 renal): > 100 µM
- TGI (HL-60(TB) leukemia): > 100 µM
- TGI (OVCAR-4 ovarian): > 100 µM
- TGI (MALME-3M melanoma): > 100 µM
- TGI (K-562 leukemia): > 100 µM
- TGI (HT29 colon): > 100 µM
- TGI (ACHN renal): > 100 µM
- TGI (HOP-92 NSCLC): > 100 µM
- TGI (DMS 273 small cell lung): > 100 µM
- TGI (SNB-75 CNS): > 100 µM
- TGI (UACC-62 melanoma): > 100 µM
- TGI (786-0 renal): > 100 µM
- TGI (SK-MEL-28 melanoma): > 100 µM
- TGI (SNB-78 CNS): 91.9 µM
